What was measured:
Experiment in all cases: relative viability (nuclei count vs DMSO), 5 days (fraction); higher = more cells survive
NCI-H2347 = test system: NCI-H2347
How it was run: (§1)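 Lung cancer cell lines, seeded in 1536-well plates, were treated the following day by pin tool with a single drug or with five library-drug doses (not always all listed) in √10 steps on top of a fixed anchor-drug dose. Cells were fixed and nuclei stained in one step after 5 days, and nuclei were counted. Relative viability is the nuclei count for treated wells divided by that for vehicle wells, reported as medians of duplicate plates.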

UMC-11 = test system: UMC-11
How it was run: as §1

HCC-15 = test system: HCC-15
How it was run: as §1

SW 1573 = test system: SW 1573
How it was run: as §1

NCI-H2126 = test system: NCI-H2126
How it was run: as §1

LU99A = test system: LU99A
How it was run: as §1

HOP-62 = test system: HOP-62
How it was run: as §1

COR-L23 = test system: COR-L23
How it was run: as §1

HCC-44 = test system: HCC-44
How it was run: as §1

NCI-H2023 = test system: NCI-H2023
How it was run: as §1

NCI-H650 = test system: NCI-H650
How it was run: as §1

NCI-H1651 = test system: NCI-H1651
How it was run: as §1

NCI-H1355 = test system: NCI-H1355
How it was run: as §1

HARA = test system: HARA
How it was run: as §1

LC-2-ad = test system: LC-2-ad
How it was run: as §1

ABC-1 = test system: ABC-1
How it was run: as §1

NCI-H1915 = test system: NCI-H1915
How it was run: as §1

NCI-H2085 = test system: NCI-H2085
How it was run: as §1

PC-14 = test system: PC-14
How it was run: as §1

NCI-H838 = test system: NCI-H838
How it was run: as §1

NCI-H1993 = test system: NCI-H1993
How it was run: as §1

EPLC-272H = test system: EPLC-272H
How it was run: as §1

COc1cc2nccc(Oc3ccc(NC(=O)Nc4cc(C)on4)c(Cl)c3)c2cc1OC [Tivozanib] + N=C(N)NC(=N)NCCc1ccccc1 [Phenformin] (partner 250 µM)
relative viability (NCI-H2347; first compound 0.01581 µM): 0.484 | relative viability (NCI-H2347; first compound 0.05 µM): 0.512 | relative viability (NCI-H2347; first compound 0.5 µM): 0.438 | relative viability (UMC-11; first compound 0.005 µM): 0.324 | relative viability (UMC-11; first compound 0.01581 µM): 0.332 | relative viability (UMC-11; first compound 0.05 µM): 0.329 | relative viability (UMC-11; first compound 0.5 µM): 0.25 | relative viability (HCC-15; first compound 0.005 µM): 0.421 | relative viability (HCC-15; first compound 0.01581 µM): 0.476 | relative viability (HCC-15; first compound 0.05 µM): 0.5 | relative viability (HCC-15; first compound 0.1581 µM): 0.581 | relative viability (HCC-15; first compound 0.5 µM): 0.426 | relative viability (SW 1573; first compound 0.005 µM): 0.361 | relative viability (SW 1573; first compound 0.01581 µM): 0.362 | relative viability (SW 1573; first compound 0.05 µM): 0.369 | relative viability (SW 1573; first compound 0.1581 µM): 0.306 | relative viability (SW 1573; first compound 0.5 µM): 0.386 | relative viability (NCI-H2126; first compound 0.005 µM): 0.486 | relative viability (NCI-H2126; first compound 0.01581 µM): 0.546 | relative viability (NCI-H2126; first compound 0.05 µM): 0.553 | relative viability (NCI-H2126; first compound 0.1581 µM): 0.516 | relative viability (NCI-H2126; first compound 0.5 µM): 0.528 | relative viability (LU99A; first compound 0.005 µM): 0.79 | relative viability (LU99A; first compound 0.01581 µM): 0.768 | relative viability (LU99A; first compound 0.05 µM): 0.879 | relative viability (LU99A; first compound 0.1581 µM): 0.769 | relative viability (LU99A; first compound 0.5 µM): 0.755 | relative viability (HOP-62; first compound 0.005 µM): 0.611 | relative viability (HOP-62; first compound 0.01581 µM): 0.626 | relative viability (HOP-62; first compound 0.05 µM): 0.66 | relative viability (HOP-62; first compound 0.1581 µM): 0.704 | relative viability (HOP-62; first compound 0.5 µM): 0.714 | relative viability (COR-L23; first compound 0.005 µM): 0.427 | relative viability (COR-L23; first compound 0.01581 µM): 0.433 | relative viability (COR-L23; first compound 0.05 µM): 0.446 | relative viability (COR-L23; first compound 0.1581 µM): 0.43 | relative viability (COR-L23; first compound 0.5 µM): 0.409 | relative viability (HCC-44; first compound 0.005 µM): 0.152 | relative viability (HCC-44; first compound 0.01581 µM): 0.234 | relative viability (HCC-44; first compound 0.05 µM): 0.19 | relative viability (HCC-44; first compound 0.1581 µM): 0.18 | relative viability (HCC-44; first compound 0.5 µM): 0.131 | relative viability (NCI-H2023; first compound 0.005 µM): 0.408 | relative viability (NCI-H2023; first compound 0.01581 µM): 0.421 | relative viability (NCI-H2023; first compound 0.05 µM): 0.426 | relative viability (NCI-H2023; first compound 0.1581 µM): 0.43 | relative viability (NCI-H2023; first compound 0.5 µM): 0.377 | relative viability (NCI-H650; first compound 0.005 µM): 0.395 | relative viability (NCI-H650; first compound 0.01581 µM): 0.457 | relative viability (NCI-H650; first compound 0.05 µM): 0.472 | relative viability (NCI-H650; first compound 0.1581 µM): 0.39 | relative viability (NCI-H650; first compound 0.5 µM): 0.333 | relative viability (NCI-H1651; first compound 0.005 µM): 0.297 | relative viability (NCI-H1651; first compound 0.01581 µM): 0.425 | relative viability (NCI-H1651; first compound 0.05 µM): 0.314 | relative viability (NCI-H1651; first compound 0.1581 µM): 0.36 | relative viability (NCI-H1651; first compound 0.5 µM): 0.315 | relative viability (NCI-H1355; first compound 0.005 µM): 0.413 | relative viability (NCI-H1355; first compound 0.01581 µM): 0.432 | relative viability (NCI-H1355; first compound 0.05 µM): 0.481 | relative viability (NCI-H1355; first compound 0.1581 µM): 0.43 | relative viability (NCI-H1355; first compound 0.5 µM): 0.382 | relative viability (HARA; first compound 0.005 µM): 0.452 | relative viability (HARA; first compound 0.01581 µM): 0.41 | relative viability (HARA; first compound 0.05 µM): 0.424 | relative viability (HARA; first compound 0.1581 µM): 0.364 | relative viability (HARA; first compound 0.5 µM): 0.489 | relative viability (LC-2-ad; first compound 0.005 µM): 0.593 | relative viability (LC-2-ad; first compound 0.01581 µM): 0.548 | relative viability (LC-2-ad; first compound 0.05 µM): 0.579 | relative viability (LC-2-ad; first compound 0.1581 µM): 0.514 | relative viability (LC-2-ad; first compound 0.5 µM): 0.387 | relative viability (ABC-1; first compound 0.005 µM): 0.236 | relative viability (ABC-1; first compound 0.01581 µM): 0.246 | relative viability (ABC-1; first compound 0.05 µM): 0.268 | relative viability (ABC-1; first compound 0.1581 µM): 0.201 | relative viability (ABC-1; first compound 0.5 µM): 0.24 | relative viability (NCI-H1915; first compound 0.005 µM): 0.365 | relative viability (NCI-H1915; first compound 0.01581 µM): 0.388 | relative viability (NCI-H1915; first compound 0.05 µM): 0.317 | relative viability (NCI-H1915; first compound 0.1581 µM): 0.373 | relative viability (NCI-H1915; first compound 0.5 µM): 0.309 | relative viability (NCI-H2085; first compound 0.005 µM): 0.652 | relative viability (NCI-H2085; first compound 0.01581 µM): 0.723 | relative viability (NCI-H2085; first compound 0.05 µM): 0.711 | relative viability (NCI-H2085; first compound 0.1581 µM): 0.62 | relative viability (NCI-H2085; first compound 0.5 µM): 0.673 | relative viability (PC-14; first compound 0.005 µM): 0.443 | relative viability (PC-14; first compound 0.01581 µM): 0.656 | relative viability (PC-14; first compound 0.05 µM): 0.588 | relative viability (PC-14; first compound 0.1581 µM): 0.611 | relative viability (PC-14; first compound 0.5 µM): 0.501 | relative viability (NCI-H838; first compound 0.005 µM): 0.538 | relative viability (NCI-H838; first compound 0.01581 µM): 0.551 | relative viability (NCI-H838; first compound 0.05 µM): 0.538 | relative viability (NCI-H838; first compound 0.5 µM): 0.564 | relative viability (NCI-H1993; first compound 0.005 µM): 0.503 | relative viability (NCI-H1993; first compound 0.01581 µM): 0.507 | relative viability (NCI-H1993; first compound 0.05 µM): 0.51 | relative viability (NCI-H1993; first compound 0.1581 µM): 0.558 | relative viability (NCI-H1993; first compound 0.5 µM): 0.52 | relative viability (EPLC-272H; first compound 0.005 µM): 0.271 | relative viability (EPLC-272H; first compound 0.01581 µM): 0.355 | relative viability (EPLC-272H; first compound 0.05 µM): 0.359 | relative viability (EPLC-272H; first compound 0.1581 µM): 0.314 | relative viability (EPLC-272H; first compound 0.5 µM): 0.239
